Experimental data: the supplement of paper PMC13380429

How the values were obtained:
Conditions in all cases: 72 h
Caco-2 [1] = assay: cell viability relative to DMSO; higher = less toxic
Calu-3 [2] = assay: as above
U2OS [3] = assay: as above
Vero E6 [4] = assay: as above
Caco-2 [5] = assay: relative viability EC50 (midpoint between 100% and the lowest measured viability); higher = less toxic
Calu-3 [6] = assay: as above
U2OS [7] = assay: as above
Vero E6 [8] = assay: as above
Caco-2 [9] = assay: drug sensitivity score (DSS) for viability; higher = more toxic; extreme values may be limits of the assay
Calu-3 [10] = assay: as above
U2OS [11] = assay: as above
Vero E6 [12] = assay: as above
HepG2 [13] = assay: cell viability relative to DMSO; higher = less toxic
HepG2 [14] = assay: drug sensitivity score (DSS) for viability; higher = more toxic; extreme values may be limits of the assay

Structure (SMILES) | cell viability (Caco-2 [1]; 1 nM) [%] | cell viability (Caco-2 [1]; 10 nM) [%] | cell viability (Caco-2 [1]; 100 nM) [%] | cell viability (Caco-2 [1]; 1000 nM) [%] | cell viability (Caco-2 [1]; 10000 nM) [%] | cell viability (Calu-3 [2]; 1 nM) [%] | cell viability (Calu-3 [2]; 10 nM) [%] | cell viability (Calu-3 [2]; 100 nM) [%] | cell viability (Calu-3 [2]; 1000 nM) [%] | cell viability (Calu-3 [2]; 10000 nM) [%] | cell viability (U2OS [3]; 1 nM) [%] | cell viability (U2OS [3]; 10 nM) [%] | cell viability (U2OS [3]; 100 nM) [%] | cell viability (U2OS [3]; 1000 nM) [%] | cell viability (U2OS [3]; 10000 nM) [%] | cell viability (Vero E6 [4]; 1 nM) [%] | cell viability (Vero E6 [4]; 10 nM) [%] | cell viability (Vero E6 [4]; 100 nM) [%] | cell viability (Vero E6 [4]; 1000 nM) [%] | cell viability (Vero E6 [4]; 10000 nM) [%] | relative viability EC50 (Caco-2 [5]) [µM] | relative viability EC50 (Calu-3 [6]) [µM] | relative viability EC50 (U2OS [7]) [µM] | relative viability EC50 (Vero E6 [8]) [µM] | drug sensitivity score (Caco-2 [9]) | drug sensitivity score (Calu-3 [10]) | drug sensitivity score (U2OS [11]) | drug sensitivity score (Vero E6 [12]) | cell viability (HepG2 [13]; 1 nM) [%] | cell viability (HepG2 [13]; 10 nM) [%] | cell viability (HepG2 [13]; 100 nM) [%] | cell viability (HepG2 [13]; 1000 nM) [%] | cell viability (HepG2 [13]; 10000 nM) [%] | drug sensitivity score (HepG2 [14])
Cc1ccc(Cl)c(Nc2ccccc2C(=O)O)c1Cl [meclofenamic-acid] | 97.6 | 103 | 95.8 | 102 | 91.2 | 98.2 | 101 | 88.1 | 109 | 91.8 | 99.3 | 103 | 97.1 | 105 | 96.2 | 105 | 93.7 | 102 | 101 | 96.5 | > 10 | > 10 | > 10 | > 10 | 0 | 0 | 0 | 0 | – | – | – | – | – | –
Cc1cc2c(cc1C(F)(F)F)N(C(=O)Nc1ccc(Oc3cccnc3C)nc1)CC2 | 97.3 | 101 | 104 | 97.1 | 91.2 | 96.4 | 98.8 | 96 | 104 | 80.6 | 101 | 106 | 95.8 | 105 | 95.4 | – | – | – | – | – | > 10 | > 10 | > 10 | – | 0 | 0.4 | 0 | – | – | – | – | – | – | –
O=C(Nc1cccc(Nc2ncc(Br)c(NCCc3cnc[nH]3)n2)c1)N1CCCC1 [BX-912] | 103 | 93.4 | 102 | 94.6 | 101 | 108 | 95.4 | 104 | 102 | 91.2 | 102 | 93.2 | 97.5 | 98.3 | 55.9 | 97.7 | 93.5 | 94.4 | 95.8 | 91.5 | > 10 | > 10 | – | > 10 | 0 | 0 | 2.5 | 0 | 103 | 91.8 | 103 | 82.3 | 55.8 | 4.7
C=CC(=O)N1CCC(Oc2cc3c(Nc4ccc(Cl)c(Cl)c4F)ncnc3cc2OC)CC1 [poziotinib] | 88.4 | 86.5 | 80.9 | 85.2 | 60.1 | 67.5 | 31.5 | 30 | 27.4 | 18.5 | 95.1 | 94.4 | 91.1 | 88 | 19.3 | 86.4 | 60.5 | 58.3 | 45.6 | 8.8 | – | 0.0016 | 2 | 0.0784 | 6.4 | 34.8 | 6.5 | 21.1 | 105 | 97.3 | 101 | 93.9 | 63.3 | 2.8
CN(C(=O)c1c(O)c2ccccc2n(C)c1=O)c1ccccc1 [roquinimex] | 88.7 | 95.5 | 82.2 | 92.5 | 99.5 | 85.8 | 96.1 | 96 | 95.4 | 108 | 96.5 | 101 | 94.1 | 93.8 | 101 | 103 | 93.6 | 98.2 | 97.1 | 105 | > 10 | > 10 | > 10 | > 10 | 0 | 0 | 0 | 0 | – | – | – | – | – | –
CCCCCCCCCCCCCCOc1ccc(C(=O)O)o1 [KD-023] | 95 | 92.9 | 105 | 92.5 | 82.5 | – | – | – | – | – | 97.4 | 97.4 | 101 | 95.8 | 103 | 102 | 102 | 100 | 99 | 78.4 | > 10 | – | > 10 | > 10 | 1.1 | – | 0 | 0.8 | 99.8 | 103 | 103 | 105 | 69.9 | 1
COc1cc(N)c(Cl)cc1C(=O)OCCCN1CCCCC1 | 116 | 108 | 104 | 98.3 | 107 | 106 | 102 | 93.5 | 114 | 104 | 101 | 94.9 | 98.1 | 104 | 102 | 106 | 104 | 107 | 104 | 99.7 | > 10 | > 10 | > 10 | > 10 | 0 | 0 | 0 | 0 | – | – | – | – | – | –
Nc1nnc(-c2cccc(Cl)c2Cl)c(N)n1 [lamotrigine] | – | – | – | – | – | – | – | – | – | – | – | – | – | – | – | – | – | – | – | – | – | – | – | – | – | 0 | 0 | – | – | – | – | – | – | –
Nc1ccc(S(=O)(=O)Nc2ncccn2)cc1 [sulfadiazine] | – | – | – | – | – | – | – | – | – | – | – | – | – | – | – | – | – | – | – | – | – | – | – | – | – | 0.1 | – | – | – | – | – | – | – | –
COc1ccccc1OC(=O)C(C)c1ccc(CC(C)C)cc1 (configuration not stated) [metoxibutropate] | 95.5 | 104 | 90.2 | 93.1 | 96.7 | 118 | 105 | 104 | 97.7 | 107 | 101 | 103 | 97.8 | 99.3 | 100 | 99.2 | 102 | 96.9 | 98.7 | 100 | > 10 | > 10 | > 10 | > 10 | 0 | 0 | 0 | 0 | – | – | – | – | – | –
CS(=O)(=O)Nc1c(O)ccc2c1CCC[C@H]2C1=NCCN1 | 109 | 104 | 101 | 101 | 96.7 | – | – | – | – | – | – | – | – | – | – | – | – | – | – | – | > 10 | – | – | – | 0 | – | – | – | – | – | – | – | – | –
CC(=O)CC(=O)O [lithium-acetoacetate] | 94 | 104 | 101 | 109 | 99.3 | 98.2 | 101 | 98.9 | 99 | 100 | 98.6 | 101 | 98.1 | 102 | 96.8 | 103 | 104 | 103 | 97.7 | 105 | > 10 | > 10 | > 10 | > 10 | 0 | 0 | 0 | 0 | – | – | – | – | – | –
C#C[C@]1(O)CC[C@H]2[C@@H]3CCC4=CC(=O)CC[C@@H]4[C@H]3CC[C@@]21CC [norgestrel] | – | – | – | – | – | – | – | – | – | – | – | – | – | – | – | – | – | – | – | – | – | – | – | – | – | 0 | 0 | 0 | – | – | – | – | – | 0
COc1cc(C(=O)OCCCN2CCCN(CCCOC(=O)c3cc(OC)c(OC)c(OC)c3)CC2)cc(OC)c1OC [dilazep] | 91.6 | 98.3 | 97.1 | 97.1 | 73.6 | 112 | 102 | 93.9 | 103 | 88.1 | 98.9 | 101 | 99.6 | 103 | 84.6 | 98.5 | 97.3 | 100 | 88.6 | 79.1 | – | > 10 | > 10 | > 10 | 1.5 | 0 | 0.2 | 1.8 | 104 | 89.5 | 102 | 82.4 | 70.4 | 3.3
O=C1NC(=O)/C(=C/c2ccc3nccc(-c4ccncc4)c3c2)S1 | 92.9 | 96.2 | 89.3 | 95.5 | 36 | 103 | 101 | 97.8 | 89.1 | 31.4 | 96.1 | 95.5 | 100 | 91.7 | 37.9 | 93.6 | 99.1 | 89.9 | 90.5 | 53.5 | 2.6 | 1.94 | 2.09 | – | 4.2 | 5.6 | 4.8 | 3.9 | 95.1 | 105 | 94.9 | 93 | 53.8 | 3.6
Cc1ccc(NC(=O)CCCCCC(=O)Nc2ccccc2N)cc1 [TC-H-106] | 103 | 97 | 97.6 | 96.2 | 81.9 | 98.5 | 99.7 | 92.9 | 87.4 | 59.4 | 101 | 96.4 | 98.4 | 95.7 | 80.3 | 105 | 102 | 98.2 | 102 | 77.6 | > 10 | – | > 10 | > 10 | 0.9 | 3.4 | 1.1 | 0.6 | 99.7 | 109 | 98.9 | 93.4 | 57.3 | 3.3
